Experiments:
Adenosine receptor A1 = molecular target: T1, Adenosine receptor A1 (Homo sapiens, UniProt P30542)
T1 sequence (P30542 whole entry): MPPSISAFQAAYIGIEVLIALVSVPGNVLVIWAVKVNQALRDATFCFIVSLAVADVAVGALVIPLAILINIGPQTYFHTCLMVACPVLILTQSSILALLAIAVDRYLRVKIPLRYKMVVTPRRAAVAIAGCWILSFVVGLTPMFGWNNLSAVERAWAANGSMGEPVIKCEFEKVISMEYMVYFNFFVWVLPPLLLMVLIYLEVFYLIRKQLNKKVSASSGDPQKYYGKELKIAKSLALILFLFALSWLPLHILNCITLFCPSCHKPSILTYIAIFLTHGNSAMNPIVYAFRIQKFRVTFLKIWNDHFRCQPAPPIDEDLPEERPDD

Adenosine receptor A2a = Adenosine receptor A2a (Homo sapiens, UniProt P29274)
[1] = molecular target: T2, Alpha-2C adrenergic receptor (Homo sapiens, UniProt P18825); type: functional
T2 sequence (P18825 whole entry): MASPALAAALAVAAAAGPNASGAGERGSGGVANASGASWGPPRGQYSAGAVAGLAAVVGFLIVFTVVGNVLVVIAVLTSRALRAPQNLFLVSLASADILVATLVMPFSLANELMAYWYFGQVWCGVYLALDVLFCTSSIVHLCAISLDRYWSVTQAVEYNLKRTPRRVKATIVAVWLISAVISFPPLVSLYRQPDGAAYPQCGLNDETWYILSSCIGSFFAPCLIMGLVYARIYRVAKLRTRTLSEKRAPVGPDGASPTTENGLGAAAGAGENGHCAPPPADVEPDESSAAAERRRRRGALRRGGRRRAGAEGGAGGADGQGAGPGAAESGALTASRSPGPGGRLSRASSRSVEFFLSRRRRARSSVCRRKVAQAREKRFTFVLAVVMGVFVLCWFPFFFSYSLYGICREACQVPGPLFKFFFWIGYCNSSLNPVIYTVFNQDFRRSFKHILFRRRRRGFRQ

[2] = molecular target: Beta-2 adrenergic receptor (Homo sapiens, UniProt P07550)
[3] = molecular target: T3, Muscarinic acetylcholine receptor M1 (Homo sapiens, UniProt P11229); type: functional, cell-based
T3 sequence (P11229 whole entry): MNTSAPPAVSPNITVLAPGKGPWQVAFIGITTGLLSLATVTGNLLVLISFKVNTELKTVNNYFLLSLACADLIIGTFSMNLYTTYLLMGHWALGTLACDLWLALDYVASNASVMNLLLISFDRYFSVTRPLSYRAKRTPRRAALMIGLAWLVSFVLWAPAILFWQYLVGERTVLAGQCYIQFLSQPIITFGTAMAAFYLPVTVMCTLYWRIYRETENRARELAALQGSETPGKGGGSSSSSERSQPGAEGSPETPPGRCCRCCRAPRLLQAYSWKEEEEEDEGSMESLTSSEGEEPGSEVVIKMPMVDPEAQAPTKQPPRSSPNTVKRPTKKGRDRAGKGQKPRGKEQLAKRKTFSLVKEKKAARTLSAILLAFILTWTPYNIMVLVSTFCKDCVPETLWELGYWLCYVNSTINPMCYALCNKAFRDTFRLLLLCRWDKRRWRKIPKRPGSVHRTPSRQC

[4] = molecular target: T4, Muscarinic acetylcholine receptor M2 (Homo sapiens, UniProt P08172); type: functional, cell-based
T4 sequence (P08172 whole entry): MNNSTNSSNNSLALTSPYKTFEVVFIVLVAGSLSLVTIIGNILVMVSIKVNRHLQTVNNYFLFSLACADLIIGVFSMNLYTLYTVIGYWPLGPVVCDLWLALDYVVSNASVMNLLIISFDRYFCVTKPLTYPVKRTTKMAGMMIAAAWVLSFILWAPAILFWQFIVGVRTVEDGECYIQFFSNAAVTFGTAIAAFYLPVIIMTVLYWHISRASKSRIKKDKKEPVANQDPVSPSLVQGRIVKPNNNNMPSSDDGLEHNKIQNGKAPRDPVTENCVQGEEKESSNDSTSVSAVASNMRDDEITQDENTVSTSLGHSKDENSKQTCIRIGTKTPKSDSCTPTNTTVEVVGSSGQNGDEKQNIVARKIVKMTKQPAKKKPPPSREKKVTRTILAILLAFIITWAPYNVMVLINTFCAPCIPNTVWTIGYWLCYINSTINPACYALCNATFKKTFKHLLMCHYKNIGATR

[5] = molecular target: Neuronal acetylcholine receptor subunit alpha-4 (Homo sapiens, UniProt P43681)
[6] = molecular target: Kappa-type opioid receptor (Homo sapiens, UniProt P41145)
Thromboxane A2 receptor = molecular target: T5, Thromboxane A2 receptor (Homo sapiens, UniProt P21731)
T5 sequence (P21731 whole entry): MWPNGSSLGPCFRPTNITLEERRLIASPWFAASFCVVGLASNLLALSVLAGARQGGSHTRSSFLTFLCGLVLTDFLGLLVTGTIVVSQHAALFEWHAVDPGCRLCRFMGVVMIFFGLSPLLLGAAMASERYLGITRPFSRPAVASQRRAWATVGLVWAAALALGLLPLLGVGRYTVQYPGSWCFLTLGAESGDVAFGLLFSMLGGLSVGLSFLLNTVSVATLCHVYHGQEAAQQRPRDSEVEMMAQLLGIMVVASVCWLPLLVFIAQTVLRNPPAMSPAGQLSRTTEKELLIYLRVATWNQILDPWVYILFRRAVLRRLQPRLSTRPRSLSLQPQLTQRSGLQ

Histamine H3 receptor = Histamine H3 receptor (Homo sapiens, UniProt Q9Y5N1)
[7] = molecular target: T6, Type-1 angiotensin II receptor (Homo sapiens, UniProt P30556)
T6 sequence (P30556 whole entry): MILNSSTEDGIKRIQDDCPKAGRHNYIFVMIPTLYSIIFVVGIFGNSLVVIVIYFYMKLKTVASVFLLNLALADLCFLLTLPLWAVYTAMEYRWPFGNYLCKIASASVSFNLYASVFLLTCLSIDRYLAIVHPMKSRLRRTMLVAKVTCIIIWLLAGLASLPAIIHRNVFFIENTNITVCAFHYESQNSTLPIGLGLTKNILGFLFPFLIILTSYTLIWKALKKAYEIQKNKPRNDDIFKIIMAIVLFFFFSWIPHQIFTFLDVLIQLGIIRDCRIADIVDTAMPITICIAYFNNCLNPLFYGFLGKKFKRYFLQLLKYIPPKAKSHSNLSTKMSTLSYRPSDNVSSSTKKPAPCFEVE

[8] = molecular target: Delta-type opioid receptor (Homo sapiens, UniProt P41143)
[9] = molecular target: Sodium-dependent serotonin transporter (Homo sapiens, UniProt P31645)
Further: assay procedure not described here.

Sequence of Kappa-type opioid receptor (P41145 whole entry): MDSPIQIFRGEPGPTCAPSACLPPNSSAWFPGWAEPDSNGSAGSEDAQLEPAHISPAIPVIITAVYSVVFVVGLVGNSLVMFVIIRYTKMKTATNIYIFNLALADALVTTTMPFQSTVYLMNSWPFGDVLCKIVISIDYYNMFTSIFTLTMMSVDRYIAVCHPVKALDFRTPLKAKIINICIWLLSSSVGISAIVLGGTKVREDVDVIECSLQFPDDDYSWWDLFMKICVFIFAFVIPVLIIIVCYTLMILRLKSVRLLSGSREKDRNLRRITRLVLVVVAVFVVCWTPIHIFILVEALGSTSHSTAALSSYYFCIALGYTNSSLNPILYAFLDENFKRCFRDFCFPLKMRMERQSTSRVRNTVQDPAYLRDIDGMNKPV
Sequence of Neuronal acetylcholine receptor subunit alpha-4 (P43681 whole entry): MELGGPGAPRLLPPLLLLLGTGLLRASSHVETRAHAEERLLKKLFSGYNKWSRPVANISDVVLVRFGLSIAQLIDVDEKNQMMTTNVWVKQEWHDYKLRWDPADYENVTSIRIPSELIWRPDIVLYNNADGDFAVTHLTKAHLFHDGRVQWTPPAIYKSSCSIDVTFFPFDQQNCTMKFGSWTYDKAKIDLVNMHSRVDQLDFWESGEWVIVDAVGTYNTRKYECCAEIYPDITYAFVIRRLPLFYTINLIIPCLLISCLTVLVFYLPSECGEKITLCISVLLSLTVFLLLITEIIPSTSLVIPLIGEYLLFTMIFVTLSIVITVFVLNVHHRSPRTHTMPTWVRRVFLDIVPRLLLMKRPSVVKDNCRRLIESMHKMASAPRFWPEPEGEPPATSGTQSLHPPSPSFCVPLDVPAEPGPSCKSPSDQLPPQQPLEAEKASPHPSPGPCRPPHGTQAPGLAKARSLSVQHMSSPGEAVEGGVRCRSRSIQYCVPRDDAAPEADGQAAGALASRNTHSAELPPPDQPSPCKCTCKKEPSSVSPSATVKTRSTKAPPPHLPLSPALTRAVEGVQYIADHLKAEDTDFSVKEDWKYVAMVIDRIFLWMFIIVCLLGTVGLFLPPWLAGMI
Sequence of Beta-2 adrenergic receptor (P07550 whole entry): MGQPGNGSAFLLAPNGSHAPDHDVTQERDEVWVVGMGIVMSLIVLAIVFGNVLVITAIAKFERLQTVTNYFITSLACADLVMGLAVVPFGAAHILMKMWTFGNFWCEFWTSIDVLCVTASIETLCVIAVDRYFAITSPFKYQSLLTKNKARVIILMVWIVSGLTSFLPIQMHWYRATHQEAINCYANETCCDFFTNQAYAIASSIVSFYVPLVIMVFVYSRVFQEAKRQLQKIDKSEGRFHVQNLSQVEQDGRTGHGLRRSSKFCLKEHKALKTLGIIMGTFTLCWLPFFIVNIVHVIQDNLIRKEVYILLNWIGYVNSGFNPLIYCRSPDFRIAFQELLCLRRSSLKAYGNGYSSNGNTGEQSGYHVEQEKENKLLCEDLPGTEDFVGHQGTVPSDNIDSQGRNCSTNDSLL
Sequence of Adenosine receptor A2a (P29274 whole entry): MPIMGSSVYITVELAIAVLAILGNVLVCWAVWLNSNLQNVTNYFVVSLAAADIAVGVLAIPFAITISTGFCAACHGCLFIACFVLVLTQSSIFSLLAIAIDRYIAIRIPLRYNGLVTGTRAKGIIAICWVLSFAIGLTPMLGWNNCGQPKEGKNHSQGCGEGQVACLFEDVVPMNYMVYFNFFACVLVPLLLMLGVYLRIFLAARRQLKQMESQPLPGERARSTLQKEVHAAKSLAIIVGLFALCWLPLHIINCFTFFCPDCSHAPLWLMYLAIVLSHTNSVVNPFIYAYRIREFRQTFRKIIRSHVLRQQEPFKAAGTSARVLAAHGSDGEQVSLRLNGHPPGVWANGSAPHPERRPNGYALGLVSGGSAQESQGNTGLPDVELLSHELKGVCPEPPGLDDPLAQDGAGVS
Sequence of Delta-type opioid receptor (P41143 whole entry): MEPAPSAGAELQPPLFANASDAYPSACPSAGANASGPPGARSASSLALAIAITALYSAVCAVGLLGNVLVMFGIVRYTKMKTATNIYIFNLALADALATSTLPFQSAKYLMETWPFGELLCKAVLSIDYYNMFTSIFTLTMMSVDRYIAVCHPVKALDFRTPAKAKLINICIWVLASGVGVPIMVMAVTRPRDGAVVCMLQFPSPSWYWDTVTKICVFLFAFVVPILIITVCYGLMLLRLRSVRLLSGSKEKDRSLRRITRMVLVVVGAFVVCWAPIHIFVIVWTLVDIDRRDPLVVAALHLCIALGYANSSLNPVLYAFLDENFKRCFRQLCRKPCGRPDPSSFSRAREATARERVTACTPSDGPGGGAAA
Sequence of Histamine H3 receptor (Q9Y5N1 whole entry): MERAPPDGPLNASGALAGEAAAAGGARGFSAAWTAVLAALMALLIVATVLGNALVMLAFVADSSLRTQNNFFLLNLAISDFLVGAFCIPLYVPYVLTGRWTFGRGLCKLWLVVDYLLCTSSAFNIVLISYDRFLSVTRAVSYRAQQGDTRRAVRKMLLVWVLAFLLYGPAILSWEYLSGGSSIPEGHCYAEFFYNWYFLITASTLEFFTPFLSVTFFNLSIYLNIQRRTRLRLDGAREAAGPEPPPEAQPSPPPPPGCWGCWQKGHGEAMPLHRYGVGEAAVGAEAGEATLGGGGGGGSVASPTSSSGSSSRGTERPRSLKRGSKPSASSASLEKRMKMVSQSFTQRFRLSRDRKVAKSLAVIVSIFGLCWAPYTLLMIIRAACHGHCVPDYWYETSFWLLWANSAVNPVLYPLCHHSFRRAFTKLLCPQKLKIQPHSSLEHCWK
Sequence of Sodium-dependent serotonin transporter (P31645 whole entry): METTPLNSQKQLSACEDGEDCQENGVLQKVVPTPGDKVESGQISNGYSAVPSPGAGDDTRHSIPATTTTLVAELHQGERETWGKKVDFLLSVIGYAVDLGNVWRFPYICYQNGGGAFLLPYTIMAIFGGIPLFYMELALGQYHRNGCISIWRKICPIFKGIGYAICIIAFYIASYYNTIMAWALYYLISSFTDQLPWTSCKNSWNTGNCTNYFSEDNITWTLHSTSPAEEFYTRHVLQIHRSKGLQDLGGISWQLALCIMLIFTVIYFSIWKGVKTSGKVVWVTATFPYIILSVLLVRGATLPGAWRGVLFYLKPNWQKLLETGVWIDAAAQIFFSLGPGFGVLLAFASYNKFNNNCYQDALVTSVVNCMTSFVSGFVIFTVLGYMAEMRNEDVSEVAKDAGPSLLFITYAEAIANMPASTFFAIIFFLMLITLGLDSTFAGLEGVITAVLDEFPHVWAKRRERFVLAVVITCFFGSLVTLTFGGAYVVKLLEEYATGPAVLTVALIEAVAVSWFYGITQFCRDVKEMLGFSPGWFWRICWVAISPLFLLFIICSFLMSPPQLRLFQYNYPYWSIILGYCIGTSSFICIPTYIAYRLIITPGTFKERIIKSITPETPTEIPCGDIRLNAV

Compound | AC50 (Adenosine receptor A1) | AC50 (Adenosine receptor A2a) | AC50 [1] | AC50 [2] | AC50 [3] | AC50 [4] | AC50 [5] | AC50 [6] | AC50 (Thromboxane A2 receptor) | AC50 (Histamine H3 receptor) | AC50 [7] | AC50 [8] | AC50 [9]
CCCc1nc2c(C)cc(-c3nc4ccccc4n3C)cc2n1Cc1ccc(-c2ccccc2C(=O)O)cc1 | > 30 µM | > 30 µM | 12.5 µM | > 30 µM | 17.6 µM | 5.16 µM | > 30 µM | > 30 µM | 18.1 µM | > 30 µM | – | – | –
Cc1nc(Nc2ncc(C(=O)Nc3c(C)cccc3Cl)s2)cc(N2CCN(CCO)CC2)n1 [DASATINIB] | > 30 µM | > 30 µM | 19 µM | > 10 µM | – | > 30 µM | > 30 µM | > 10 µM | > 10 µM | 12.7 µM | > 30 µM | 9.76 µM | –
O=C(O)Cc1ccccc1Nc1c(Cl)cccc1Cl [DICLOFENAC] | > 30 µM | > 30 µM | > 10 µM | > 10 µM | – | > 10 µM | > 10 µM | > 10 µM | > 30 µM | > 10 µM | > 30 µM | > 30 µM | –
CN[C@@H]1[C@H](O[C@H]2[C@H](O[C@H]3[C@H](O)[C@@H](O)[C@H](NC(=N)N)[C@@H](O)[C@@H]3NC(=N)N)O[C@@H](C)[C@]2(O)CO)O[C@@H](CO)[C@H](O)[C@H]1O [DIHYDROSTREPTOMYCIN] | – | – | – | – | – | – | – | – | – | – | – | – | > 30 µM
O=C(O)Cc1ccccc1Oc1ccc(Cl)cc1Cl [FENCLOFENAC] | > 30 µM | > 30 µM | > 10 µM | > 10 µM | > 30 µM | > 10 µM | > 10 µM | > 10 µM | > 30 µM | > 10 µM | > 30 µM | > 30 µM | –
Cc1ccc(C)c(OCCCC(C)(C)C(=O)O)c1 [GEMFIBROZIL] | > 30 µM | > 30 µM | > 10 µM | > 10 µM | – | > 10 µM | > 10 µM | > 10 µM | > 30 µM | > 10 µM | > 30 µM | > 30 µM | –
C#C[C@]1(O)C=C[C@H]2[C@@H]3CCC4=CC(=O)CC[C@@H]4[C@H]3CC[C@@]21CC [GESTODENE] | – | – | – | – | – | – | – | – | – | – | – | – | 4.59 µM
COc1ccccc1OC1(C)OC(=O)c2ccccc2O1 (stereo not drawn) [GUAIMESAL] | > 30 µM | > 30 µM | – | > 30 µM | > 30 µM | – | > 30 µM | – | > 30 µM | > 30 µM | > 30 µM | – | –
CCCCCCCN(CC)CCCC(O)c1ccc(NS(C)(=O)=O)cc1 (stereo not drawn) [IBUTILIDE] | > 30 µM | > 30 µM | 3.2 µM | > 30 µM | – | 22 µM | > 30 µM | > 30 µM | > 30 µM | > 30 µM | > 30 µM | > 30 µM | –
COc1cc(C(C)=O)ccc1OCCCN1CCC(c2noc3cc(F)ccc23)CC1 [ILOPERIDONE] | > 30 µM | > 30 µM | 0.018 µM | > 10 µM | > 10 µM | 8.3 µM | 2 µM | > 10 µM | – | > 30 µM | > 30 µM | > 30 µM | –
CC[C@H](C)C(=O)O[C@H]1C[C@@H](C)C=C2C=C[C@H](C)[C@H](CC[C@@H]3C[C@@H](O)CC(=O)O3)[C@H]21 [LOVASTATIN] | > 30 µM | > 30 µM | > 10 µM | > 10 µM | – | > 10 µM | > 10 µM | > 10 µM | 12 µM | > 10 µM | 39.8 µM | > 30 µM | –
CC[C@@H](CO)NC(=O)[C@@H]1C=C2c3cccc4c3c(cn4C)C[C@H]2N(C)C1 [METHYSERGIDE] | > 30 µM | > 30 µM | 3.5 µM | > 10 µM | – | > 30 µM | > 10 µM | > 10 µM | 24.5 µM | > 10 µM | > 30 µM | > 30 µM | –
CCCc1cc(=O)[nH]c(=S)[nH]1 [PROPYLTHIOURACIL] | > 10 µM | > 10 µM | > 10 µM | > 10 µM | – | > 10 µM | > 10 µM | > 10 µM | > 10 µM | > 10 µM | > 10 µM | > 30 µM | –
Cn1cc(C(=O)[C@@H]2CCc3nc[nH]c3C2)c2ccccc21 [RAMOSETRON] | > 30 µM | > 30 µM | 11 µM | > 30 µM | – | > 30 µM | > 30 µM | 17 µM | > 30 µM | > 30 µM | > 30 µM | > 30 µM | –
CN(CCOc1ccc(CC2SC(=O)NC2=O)cc1)c1ccccn1 (stereo not drawn) [ROSIGLITAZONE] | > 30 µM | > 30 µM | > 30 µM | > 30 µM | – | 22 µM | > 30 µM | > 30 µM | > 30 µM | > 30 µM | 18 µM | > 30 µM | –
CC(C)[C@H](N)C(=O)OCCOCn1cnc2c(=O)[nH]c(N)nc21 [VALACYCLOVIR] | > 30 µM | > 30 µM | > 10 µM | > 10 µM | – | > 10 µM | > 10 µM | > 10 µM | > 30 µM | > 10 µM | > 30 µM | > 30 µM | –
O=C1Cc2cc(CCN3CCN(c4nsc5ccccc45)CC3)c(Cl)cc2N1 [ZIPRASIDONE] | > 30 µM | > 30 µM | – | > 30 µM | > 30 µM | > 10 µM | > 10 µM | – | > 30 µM | > 30 µM | > 30 µM | > 30 µM | –

Source: ChEMBL document CHEMBL5291721, “A preclinical secondary pharmacology resource illuminates target-adverse drug reaction associations of marketed drugs” (Nat Commun, 2023)
